Source: patent publication US9248108B2 (Ottawa Hospital Research Institute, priority 2012, dated 2016)
Marks after values point to notes of the source that are not given here.

How the values were obtained:
[1] = tested on: GV oocytes from 7-8-week-old CF1 mice; experiment: In vitro maturation (IVM) of GV oocytes from young CF1 mice, metaphase II egg karyotyping (chromosome staining only); assay type: cell-based, mouse
Protocol: Immature mouse oocytes (a.k.a. “GV oocytes” for the presence of intact germinal vesicle) from young CF1 mice (7-8 weeks of age) were cultured in medium (control) or medium containing 5 mM DFMO (Garcia-Faroldi et al., 2009).
All metaphase II eggs were subjected to karyotype analyses and counted spreads that contained 18 or more chromosomes and in which all chromosomes were close together, to eliminate over-spread karyotypes. Only hyperploid eggs, those containing 21 or more chromosomes, were considered aneuploid, to avoid artifacts due to loss of chromosomes during preparation of chromosome spreads (Koehler et al., 2006). In this set of experiments, in which only DNA staining was employed, hyperploid oocytes that contained extra whole chromosomes (dyads) were not distinguished from those that contained separated sister(s), because it is often difficult to differentiate a small chromosome dyad and a single sister in telocentric chromosomes such as in mouse.
Metaphase II eggs were karyotyped with chromosome staining only. N: total number of interpretable metaphase II spreads, with 18 or more chromosomes. Hypoploid: 18-19 chromosomes. Euploid: 20 chromosomes. Hyperploid: 21 chromosomes.
Mice were euthanized by cervical dislocation 44-46 h after they were primed with 5 IU equine chorionic gonadotropin (eCG) intraperitonally. […] Ovaries were immediately removed and minced in M2 medium (Sigma; unless otherwise indicated, other chemicals used in this study were also purchased from Sigma) to release oocytes. Oocytes with a clear germinal vesicle (GV) were used for in vitro maturation (IVM) for 17 hours in IVM medium (αMEM medium supplemented with 5% fetal bovine serum and 1 mM L-glutamine) overlaid with mineral oil.
Chromosome spread was carried out according to Hodges and Hunt (Hodges & Hunt, 2002) with minor modifications. In brief, oocytes or 2-cell embryos were collected in M2 medium. The zona pellucida was removed by treatment with 0.5 units/μl pronase at 37° C. for 20 sec. Zona-free oocytes/embryos were rinsed in M2 medium to detach polar bodies. The oocytes/embryos were individually plated onto glass slides (1-10 oocytes/embryos per slide) predipped in the fixative (prepared weekly and stored at 4° C.) containing 1% paraformaldehyde (w/v), 0.15% Triton X-100 (v/v), and 3 mM dithiothreitol, pH 9.2. Slides were kept overnight in moist boxes at room temperature. The slides were then rinsed in 0.5% Kodak Flo (Eastman Kodak Company, Rochester, N.Y.) solution and air-dried. The slides were incubated in 1:200 diluted human anti-centromere serum (Immunovision, Springdale, Ark.) in PBS containing 1% BSA overnight at 4° C., in 1:300 diluted secondary antibody (goat anti-human) conjugated with rhodamine (Jackson ImmunoResearch) in PBS-BSA for 1 h at room temperature, and 0.1% SYTOX green (Invitrogen, Eugene, Oreg.) in PBS for 30 min at room temperature. To avoid bias, the slides were coded by a colleague before being examined by an investigator using epifluorescence microscopy and photographed. Decoding was done after karyotypes were tabulated.

[2] = tested on: young (7-8 weeks) CF1 mice; experiment: DFMO in mouse drinking water, karyotyping of oviduct-derived metaphase II eggs; assay type: in vivo
Text: The effect of DFMO on egg aneuploidy in vivo was also examined. […] Oviduct-derived metaphase II eggs, from control mice and DFMO treated mice, were subjected to karyotype analyses. In these and all subsequent egg karyotype analyses, anti-CREST antibodies were used to label centromeres (Hodges & Hunt, 2002), in addition to DNA staining. This modification allowed unambiguous identification of single sister chromatid(s) in metaphase II eggs, termed premature separation of sister chromatids (PSSC), the predominant form of mouse egg aneuploidies found in this study (see Table 3).
Hypoploid: 18-19 dyads. Euploid: 20 dyads. Hyperploid: 21 or 22 dyads. […] Aneuploid: 2×hyperploid+PSSC. Detailed breakdowns are in Table 7.
In order to collect mature (metaphase II) oocytes in vivo (ovulation experiments) each mouse was injected with 5 IU human chorionic gonadotropin (hCG) intraperitoneally 44-46 h after eCG priming. The animals were euthanized 16-18 h after hCG injection and MII eggs were flushed out of oviducts in M2 medium and subjected to karyotype analyses as described below. For mice that were treated with 1% DFMO in drinking water, the drugs were present until the time of euthanization (see FIG. 4 for details).
(§1) Decoding was done after karyotypes were tabulated.

[3] = tested on: GV oocytes from young hybrid F1 females (C57BL/6 x SPRET/Ei); experiment: IVM of GV oocytes from young hybrid F1 females, metaphase II egg karyotyping; assay type: cell-based, mouse; conditions: 17 h IVM, 5 mM DFMO
Protocol: Table 8 DFMO increases the egg aneuploidy rate of young hybrid F1 females. GV oocytes isolated from young (7-8 weeks) hybrid F1 females, via crossing C57BL/6 females and SPRET/Ei males, were incubated for 17 h in αMEM (control) or αMEM containing 5 mM DFMO. […] Hypoploid: 18-19 dyads. Euploid: 20 dyads. Hyperploid: 21 or 22 dyads. […] Aneuploid: 2×hyperploid+PSSC. Detailed breakdowns are in Table 9.
Two other mouse models were additionally used. First, DFMO was tested as a potential treatment to […] egg aneuploidy in the hybrid F1 females that has a high baseline aneuploidy rate similar to human (Koehler et al., 2006).
as §1

[4] = tested on: 2-cell embryos of young CF1 mice; experiment: DFMO in mouse drinking water prior to mating, 2-cell embryo karyotyping; assay type: in vivo
Protocol: Table 10 DFMO in mouse drinking water increases hyperploid 2-cell embryos. Young (7-8 weeks) CF1 mice were treated with regular water (control), or 1% DFMO drinking water for 48 h, prior to mating (see FIG. 5 for details). Embryos (2-cell) were isolated and subjected to karyotype analyses. N: Total interpretable 2-cell embryos. Euploid: 40 chromosomes in each of the two blastomeres, or 40 chromosomes in one blastomere with the other blastomere having less than 40 chromosomes or uninterpretable/lost. Hypoploid: 39 chromosomes in each of the two blastomeres, or 39 in one blastomere with the other less than 39 or uninterpretable/lost. Hyperploid: 41 chromosomes in at least one blastomere (we found no 42 or more chromosomes in this study). Detailed breakdowns are in Table 11.
To produce 2-cell embryos, mice were sequentially injected with eCG and hCG, as above for ovulation. After hCG injection, the females were caged singly with fertile young males overnight. For mice that were treated with 1% DFMO, the drug was withdrawn, and normal water resumed, at the time of hCG injection (see […] for details). The females were separated from the males in the next morning (day 1 post coital or p.c.). Females were euthanized in the late morning on day 2 p.c., and the embryos were collected by flushing the oviducts with M2 medium. After three rinses in KSOM medium, the embryos were cultured 17 h in KSOM containing 0.02 μg/ml colchicine to cause metaphase arrest of the 2-cell embryos.
as §1

ovarian ODC = molecular target: T1, ovarian ODC (Mus musculus, UniProt P00860); experiment: Ovarian ODC activity assay; assay type: in vivo; conditions: 1% DFMO in drinking water, hCG-stimulated 8-week-old mice
T1 construct: The ovarian homogenates were centrifuged at 16,000×g for 10 min; Supernatants were applied to ODC assays; from tissue; host or cells: mouse ovary (C57BL/6, 8 weeks old, hCG-stimulated), homogenate supernatant
T1 sequence (P00860 1-461): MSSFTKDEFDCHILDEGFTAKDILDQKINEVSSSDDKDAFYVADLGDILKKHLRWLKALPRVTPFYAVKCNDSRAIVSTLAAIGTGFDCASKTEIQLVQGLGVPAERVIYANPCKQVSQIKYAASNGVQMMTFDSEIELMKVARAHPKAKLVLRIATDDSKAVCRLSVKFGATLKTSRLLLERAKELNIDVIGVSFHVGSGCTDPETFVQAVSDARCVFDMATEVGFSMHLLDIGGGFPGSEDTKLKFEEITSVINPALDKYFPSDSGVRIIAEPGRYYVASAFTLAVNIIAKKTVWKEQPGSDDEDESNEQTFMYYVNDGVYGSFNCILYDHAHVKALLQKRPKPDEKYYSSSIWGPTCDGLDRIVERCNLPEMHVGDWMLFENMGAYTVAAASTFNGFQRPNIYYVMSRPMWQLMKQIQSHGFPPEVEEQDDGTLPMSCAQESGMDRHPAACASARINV
Protocol: After 44-46 h eCG priming, or 6 h following the subsequent hCG injection, the ovaries were collected into Eppendorf tubes and frozen at −80° C. immediately till use. The ovaries were weighed and minced with optical scissors. Lysis buffer (25 mM Tris/HCl pH 7.2, 2 mM dithiothreitol, 0.1 mM EDTA, 0.25 M sucrose, 0.1% Triton X-100 (v/v); modified from Bastida et al. (Bastida et al., 2005) was added 25 μL per mg ovarian tissues and the resulting suspension homogenized by sonication (Fisher Sonic Demembrator, New York, USA) for 20 seconds thrice. The ovarian homogenates were centrifuged at 16,000×g for 10 min. Supernatants were applied to ODC assays (Zhou et al., 2009) in microtiter plates, each well containing 50 μL of lysate, plus 0.1 mM pyridoxyl-5-phosphate and 0.5 μCi (57.1 mCi/mmol) of 14C-labeled ornithine (PerkinElmer, Boston, Mass.). The wells were tightly covered with 3MM paper pre-wet in freshly prepared water-saturated Ba(OH)2. The wells were incubated 1 h at 37° C. ^14CO2 released from decarboxylation reaction formed Ba^14CO3 precipitates on filter. […] The Storage phosphor screen was then scanned on Typhoon™ imaging system (GE Healthcare Life Sciences), resulting in digital images that were then quantified by Image Quant5.2 (GE Healthcare Life Sciences). ODC activity is expressed as relative light intensity in arbitrary units.

ovarian polyamines = experiment: Ovarian polyamine quantification by ion chromatography; assay type: in vivo, mouse; conditions: 1% DFMO in drinking water for 48 hours up to sacrifice
Protocol: A Dionex ion chromatography system was used to analyze polyamines during ovulation. This system employs an online conductivity detector coupled with an anion suppressor such that only cations are detected. Ovaries were extracted in 5% trichloric acid (TCA) followed by extraction with diethyl ether. The TCA extracts were diluted in water before being applied to the ion chromatography system.
Polyamines from ovarian samples were determined by ion chromatography (IC) system (Rey and Pohl, 2003. J. Chromatography A 997:199-206). Ovaries were collected immediately after animal sacrifice and stored at −80° C. until use. The samples were thawed and minced, and then 5% trichloroacetic acid (TCA) was added (20 μl/mg). The samples were ultra-sonicated 30 seconds thrice. After centrifugation, the supernatants were extracted twice with diethyl ether. The mouse blood was collected in a tube containing 1 iu/ml heparin (LEO). After centrifugation, the supernatant (plasma) was collected and 10% TCA was added by 1:1 in volume. These plasma samples were extracted twice with diethyl ether, as noted above. The extracts were diluted 10 times in water for polyamine analysis on Dionex Ion ICS-2100 system (Thermo scientific, Dionex, Sunnyvale, Calif., USA) according to the manufacture instructions, using the support software of PeakNet 6.40 SP5 Build 778.

[5] = number of ovulated MII eggs, 1% DFMO drinking water 48 h
[6] = number of 2-cell embryos, 1% DFMO drinking water 48 h prior to mating
[7] = percent of interpretable 2-cell embryos, 1% DFMO drinking water 48 h

Question: Which “first polar body emission” value ([1]; 5 mM DFMO in IVM medium, 776/945) does the source give for `NCCC[C@](N)(C(=O)O)C(F)F` [DFMO, α-difluoromethylornithine] here?
Answer: The value was 82%.

Question: What about the “% Hyperploidy” value ([1]; 17 h IVM, 5 mM) of the same compound?
Answer: Its value is 4.9 * %.

Question: What about the “Hypoploid 18” value ([1]; number of MII eggs with 18 chromosomes, 17 h IVM, 5 mM each agent in αMEM) of the same compound?
Answer: Its value is 2.

Question: And the “Hypoploid 19” value ([1]; number of MII eggs with 19 chromosomes, 17 h IVM, 5 mM)?
Answer: The value was 18.

Question: And the “Eupoloid 20” value ([1]; number of MII eggs with 20 chromosomes, 17 h IVM, 5 mM)?
Answer: Its value is 175.

Question: And the “Hyperploid 21” value ([1]; number of MII eggs with 21 chromosomes, 17 h IVM, 5 mM)?
Answer: The value was 10.

Question: What about the “Hyperploid 22” value ([1]; number of MII eggs with 22 chromosomes, 17 h IVM, 5 mM) of the same compound?
Answer: Its value is 0.

Question: What about the “% Hyperploidy” value ([2]; 1% DFMO drinking water 48 h) of the same compound?
Answer: The value was 1.1** %.

Question: And the “number of MII eggs collected from the oviducts” value ([2]; 1% DFMO drinking water, n=37)?
Answer: Its value is 29.3 /mouse.

Question: What about the “% Aneuploidy” value ([2]; Aneuploid: 2×hyperploid+PSSC, 1% DFMO drinking water 48 h) of the same compound?
Answer: The value was 7.7%.

Question: What about the PSSC ([2]; number of eggs with separated sister chromatid(s), 1% DFMO drinking water 48 h) of the same compound?
Answer: Its PSSC is 14*.

Question: And the “Eupoloid 20” value [2, 5]?
Answer: Its value is 191.

Question: What about the “Hyperploid 21” value [2, 5] of the same compound?
Answer: The value was 3.

Question: And the “Hyperploid 22” value [2, 5]?
Answer: Its value is 0.

Question: What about the “Hypoploid 18” value [2, 5] of the same compound?
Answer: The value was 12.

Question: What about the “Hypoploid 19” value [2, 5] of the same compound?
Answer: Its value is 41.

Question: And the “% Hyperploidy” value [3]?
Answer: The value was 2.5** %.

Question: What about the “% Aneuploidy” value ([3]; Aneuploid: 2×hyperploid+PSSC) of the same compound?
Answer: Its value is 22.5%.

Question: What about the “Euploid 20” value ([3]; number of MII eggs) of the same compound?
Answer: The value was 50.

Question: What about the “Hyperploid 21” value ([3]; number of MII eggs) of the same compound?
Answer: The value was 2.

Question: And the “Hyperploid 22” value ([3]; number of MII eggs)?
Answer: Its value is 0.

Question: And the “Hypoploid 18” value ([3]; number of MII eggs)?
Answer: The value was 5.

Question: What about the “Hypoploid 19” value ([3]; number of MII eggs) of the same compound?
Answer: The value was 9.

Question: And the PSSC ([3]; number of MII eggs)?
Answer: Its PSSC is 14*.

Question: And the “Euploid 40” value [4, 6]?
Answer: The value was 38.

Question: And the “Hyperploid 41” value [4, 6]?
Answer: Its value is 5.

Question: What about the “Hypoploid 39” value [4, 6] of the same compound?
Answer: The value was 5.

Question: And the “Euploid 40” value [4, 7]?
Answer: Its value is 79.2%.

Question: What about the “Hyperploid 41” value [4, 7] of the same compound?
Answer: The value was 10.4%.

Question: What about the “Hypoploid 39” value [4, 7] of the same compound?
Answer: The value was 10.4%.

Question: And the “ovarian ODC activity” value (ovarian ODC)?
Answer: The value was “efficiently inhibited”.

Question: What about the “hCG-mediated ovarian putrescine increase” value (ovarian polyamines) of the same compound?
Answer: The value was “completely eliminated”.
